The record followed here is paper PMC4354951 (European journal of medicinal chemistry, 2008).

The target in one series is T1, human NTPDase1 (Homo sapiens, UniProt P49961).
T1 sequence (P49961 1-510): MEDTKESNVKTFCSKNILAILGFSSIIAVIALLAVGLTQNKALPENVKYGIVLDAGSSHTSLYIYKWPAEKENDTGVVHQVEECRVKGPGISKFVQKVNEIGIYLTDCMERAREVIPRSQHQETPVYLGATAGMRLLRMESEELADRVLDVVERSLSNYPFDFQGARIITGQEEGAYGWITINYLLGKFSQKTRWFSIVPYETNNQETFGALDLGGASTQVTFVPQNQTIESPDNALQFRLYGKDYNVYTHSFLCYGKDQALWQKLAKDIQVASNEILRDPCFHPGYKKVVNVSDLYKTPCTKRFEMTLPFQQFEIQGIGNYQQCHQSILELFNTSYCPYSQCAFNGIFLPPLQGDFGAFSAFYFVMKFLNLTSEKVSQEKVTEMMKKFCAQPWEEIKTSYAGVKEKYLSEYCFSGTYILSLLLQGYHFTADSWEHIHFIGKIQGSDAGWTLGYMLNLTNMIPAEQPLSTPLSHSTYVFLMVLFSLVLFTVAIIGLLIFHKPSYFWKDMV
In words: Hydrolysis by NTPDase1. In kind it is biochemical. The note with it: 100 μM substrate; relative to ATP hydrolysis (100%).

The next series has as its target T2, human NTPDase3 (Homo sapiens, UniProt O75355).
T2 sequence (O75355 1-529): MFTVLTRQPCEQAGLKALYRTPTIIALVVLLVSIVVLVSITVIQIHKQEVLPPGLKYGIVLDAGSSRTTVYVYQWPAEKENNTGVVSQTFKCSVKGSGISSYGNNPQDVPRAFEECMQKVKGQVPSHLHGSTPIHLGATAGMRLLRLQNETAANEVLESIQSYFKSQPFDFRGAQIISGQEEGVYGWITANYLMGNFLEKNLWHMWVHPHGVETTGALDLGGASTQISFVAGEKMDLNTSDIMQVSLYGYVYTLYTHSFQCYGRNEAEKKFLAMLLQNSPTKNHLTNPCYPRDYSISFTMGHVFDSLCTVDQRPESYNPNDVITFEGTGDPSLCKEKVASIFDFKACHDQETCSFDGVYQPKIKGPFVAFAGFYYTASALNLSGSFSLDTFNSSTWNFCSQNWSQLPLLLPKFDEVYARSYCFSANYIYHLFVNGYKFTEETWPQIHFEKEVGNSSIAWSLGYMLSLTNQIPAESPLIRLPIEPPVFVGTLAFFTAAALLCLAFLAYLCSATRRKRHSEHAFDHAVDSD
In words: Hydrolysis by NTPDase3. In kind it is biochemical. The following applies: 100 μM substrate; relative to ATP hydrolysis (100%).

In a further series the target is human P2Y2 receptor (Homo sapiens, UniProt P41231). Kind of series: Increase in [Ca2+]i in 1321N1 astrocytoma cells expressing P2Y2 receptor. The following applies: 1321N1 cell transfectants; for EC50: read-out: EC50 of analogue-induced increase in [Ca2+]i, P2Y2. In kind it is cell-based.
Chain of human P2Y2 receptor (P41231 whole entry): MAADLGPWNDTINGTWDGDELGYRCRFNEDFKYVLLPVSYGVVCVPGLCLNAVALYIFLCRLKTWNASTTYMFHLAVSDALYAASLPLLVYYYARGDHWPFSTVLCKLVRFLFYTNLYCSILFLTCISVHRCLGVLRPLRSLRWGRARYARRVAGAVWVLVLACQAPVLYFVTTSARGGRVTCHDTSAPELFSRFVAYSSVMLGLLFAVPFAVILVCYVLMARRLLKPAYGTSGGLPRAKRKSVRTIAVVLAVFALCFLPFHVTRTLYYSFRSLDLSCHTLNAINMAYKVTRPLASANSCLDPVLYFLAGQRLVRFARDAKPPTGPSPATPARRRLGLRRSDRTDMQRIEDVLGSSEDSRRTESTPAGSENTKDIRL
Another series deals with T3, human NPP3 (Homo sapiens, UniProt O14638).
T3 sequence (O14638 1-875): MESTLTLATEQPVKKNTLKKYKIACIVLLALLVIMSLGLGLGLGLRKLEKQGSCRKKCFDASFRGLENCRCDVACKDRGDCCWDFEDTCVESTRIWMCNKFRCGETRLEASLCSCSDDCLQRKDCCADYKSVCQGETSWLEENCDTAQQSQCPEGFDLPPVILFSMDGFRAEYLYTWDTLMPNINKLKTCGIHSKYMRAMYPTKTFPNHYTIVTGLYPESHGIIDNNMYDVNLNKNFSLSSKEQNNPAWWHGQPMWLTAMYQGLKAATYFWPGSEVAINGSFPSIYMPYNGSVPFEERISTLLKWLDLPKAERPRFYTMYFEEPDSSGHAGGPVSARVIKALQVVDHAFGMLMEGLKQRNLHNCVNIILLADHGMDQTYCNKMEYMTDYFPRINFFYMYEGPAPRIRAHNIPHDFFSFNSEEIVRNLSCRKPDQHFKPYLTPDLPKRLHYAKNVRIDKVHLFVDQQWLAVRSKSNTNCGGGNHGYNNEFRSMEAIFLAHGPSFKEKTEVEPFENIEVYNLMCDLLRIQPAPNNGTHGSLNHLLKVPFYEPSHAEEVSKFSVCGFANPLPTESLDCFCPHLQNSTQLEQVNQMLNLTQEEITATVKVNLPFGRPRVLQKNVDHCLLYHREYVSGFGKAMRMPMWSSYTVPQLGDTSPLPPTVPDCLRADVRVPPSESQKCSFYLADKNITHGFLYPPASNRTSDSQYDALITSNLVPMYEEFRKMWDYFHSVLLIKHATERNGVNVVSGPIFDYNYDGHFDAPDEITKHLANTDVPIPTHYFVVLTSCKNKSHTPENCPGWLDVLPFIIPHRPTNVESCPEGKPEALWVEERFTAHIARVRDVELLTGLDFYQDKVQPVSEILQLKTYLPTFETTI
In words: Hydrolysis by NPP3. In kind it is biochemical. The following applies: 100 μM substrate; relative to pnp-TMP hydrolysis (100%).

The next series concerns the target rat P2Y6 receptor (Rattus norvegicus, UniProt Q63371). In words: Increase in [Ca2+]i in 1321N1 astrocytoma cells expressing P2Y6 receptor. In kind it is cell-based. The following applies: 1321N1 cell transfectants; for EC50: read-out: EC50 of analogue-induced increase in [Ca2+]i, P2Y6.
For a further series, the target named is turkey P2Y1 receptor (Meleagris gallopavo, UniProt P49652). In kind it is cell-based. The following applies: 1321N1 cell transfectants; for EC50: read-out: EC50 of analogue-induced increase in [Ca2+]i, P2Y1.
Chain of turkey P2Y1 receptor (P49652 whole entry): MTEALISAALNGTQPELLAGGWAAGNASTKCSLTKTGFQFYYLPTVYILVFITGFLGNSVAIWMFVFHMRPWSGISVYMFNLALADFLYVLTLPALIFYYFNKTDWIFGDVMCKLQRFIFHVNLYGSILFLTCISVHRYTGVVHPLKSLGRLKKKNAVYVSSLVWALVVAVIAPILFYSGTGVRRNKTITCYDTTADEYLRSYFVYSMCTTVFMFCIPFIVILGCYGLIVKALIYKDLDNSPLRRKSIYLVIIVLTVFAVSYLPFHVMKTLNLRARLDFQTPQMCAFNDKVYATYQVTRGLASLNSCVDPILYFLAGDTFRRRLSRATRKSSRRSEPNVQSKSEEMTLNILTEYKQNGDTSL

“And” between values parts separate entries of the source, which are not always exact repeats. Equal entries are not always repeated. “Also recorded” adds a separate entry of the source.

Chain of rat P2Y6 receptor (Q63371 whole entry): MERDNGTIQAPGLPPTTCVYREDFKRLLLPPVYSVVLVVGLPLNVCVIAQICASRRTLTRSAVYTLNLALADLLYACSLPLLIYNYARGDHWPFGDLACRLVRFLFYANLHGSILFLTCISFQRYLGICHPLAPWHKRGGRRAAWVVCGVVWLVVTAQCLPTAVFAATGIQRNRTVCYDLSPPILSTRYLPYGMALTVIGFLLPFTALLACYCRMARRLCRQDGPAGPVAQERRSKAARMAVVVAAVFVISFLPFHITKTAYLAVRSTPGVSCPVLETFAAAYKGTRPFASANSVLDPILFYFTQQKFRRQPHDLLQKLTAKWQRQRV

As to `[BH3-][P+](O)(OC[C@H]1O[C@@H](n2cnc3c(N)ncnc32)[C@H](O)[C@@H]1O)OP(=O)(O)CP(=O)(O)O` (single isomer, unassigned) [3B, Adenosine-5′-O-(α-boranotriphosphate)-β,γ-CH2], the “Relative activity of NTPDase1” value on human NTPDase1 stood at 0%. Besides, the “Relative activity of NTPDase3” value at human NTPDase3 turned out to be 6.0 ± 0.16%. Further, at human P2Y2 receptor, the “agonist activity at P2Y2R” value is on record as “insignificant activities” and the concentration giving a half-maximal response (EC50) was > 100 µM. Besides, the “Relative activity of NPP3” value at human NPP3 turned out to be 3.0 ± 0.05%. Moreover, at rat P2Y6 receptor, the “agonist activity at P2Y6R” value was “insignificant activities” and the EC50 was > 100 µM. Besides, at turkey P2Y1 receptor, the “agonist activity at P2Y1R” value is on record as “insignificant activities” and the EC50 was > 100 µM.
In the case of `[BH3-][P+](O)(OC[C@H]1O[C@@H](n2cnc3c(N)ncnc32)[C@H](O)[C@@H]1O)OP(=O)(O)CP(=O)(O)O` (single isomer, unassigned) [3A, Adenosine-5′-O-(α-boranotriphosphate)-β,γ-CH2], at human NTPDase1, the “Relative activity of NTPDase1” value came out at 1.0 ± 2.1%. In addition, at human NTPDase3, the “Relative activity of NTPDase3” value was determined as 0%. Moreover, on human P2Y2 receptor, the “agonist activity at P2Y2R” value is given as “insignificant activities” and the EC50 was > 100 µM. Moreover, the “Relative activity of NPP3” value on human NPP3 turned out to be 0%. In addition, at rat P2Y6 receptor, the “agonist activity at P2Y6R” value is reported as “insignificant activities” and the EC50 was > 100 µM. For the same compound, at turkey P2Y1 receptor, the “agonist activity at P2Y1R” value is “insignificant activities; also recorded: practically inactive” and the concentration for a half-maximal effect (EC50) was > 100 µM.
Consider `[BH3-][P+](O)(OC[C@H]1O[C@@H](n2cnc3c(N)nc(SC)nc32)[C@H](O)[C@@H]1O)OP(=O)(O)CP(=O)(O)O` (single isomer, unassigned) [4A, 2-MeS–adenosine-5′-O-(α-boranotriphosphate)-β,γ-CH2], for which, on human NTPDase1, the “Relative activity of NTPDase1” value is <1%. On human NTPDase3, the “Relative activity of NTPDase3” value was determined as 2.0 ± 0.26%. In addition, at human P2Y2 receptor, the “agonist activity at P2Y2R” value was “insignificant activities; also recorded: inactivity” and the EC50 was > 100 µM. Further, the “Relative activity of NPP3” value on human NPP3 is 10% and 9.9 ± 0.5%. On rat P2Y6 receptor, the “agonist activity at P2Y6R” value is “insignificant activities” and the concentration giving a half-maximal response (EC50) is > 100 µM. Moreover, on turkey P2Y1 receptor, the “agonist activity at P2Y1R” value was “insignificant activities; also recorded: practically inactive; also recorded: no activity” and the EC50 was > 100 µM.
